What was measured:
neuroblastoma cell lines = assay: Cell viability dose response curves in neuroblastoma cell lines; assay type: cell-based; conditions: in vitro, FIG. 2A
Method: Two sets of cell viability assays were performed to characterize [^211At]-Compound 1 in neuroblastoma, ovarian, and breast cancer cells. […] The first assay performed was a screen of 25 cell lines at a single concentration of 5 μCi/mL. […] Following treatment cell viability was assessed using a commercially available kit that measures ATP and data was normalized to healthy controls to produce % surviving fraction. […] Cells were treated for 72 hrs followed by evaluation of cell viability. […] Effective concentrations to reduce 50% growth compared to healthy controls were calculated using standard curve fitting software.

[1] = tested on: phosphorylated ATM and H2AX; assay: Flow cytometry of phosphorylated ATM and H2AX (DNA double strand breaks); assay type: cell-based; conditions: 1 μCi/mL
Method: To accomplish this, γH2AX and PARP-1 were measured after being treated NLF cells for 1, 4, or 24 hours at doses of 0.1, or 1 μCi/mL. Data was analyzed by quantifying small regions of interest in the nucleus of cells and by nuclear co-localization. […] In flow cytometry experiments, DNA damage was measured by quantifying phosphorylated ATM and H2AX. Lastly, cell cycle analysis was evaluated using propidium iodide staining in control vs. [^211At]-Compound 1 treated cells.

[2] = tested on: IMR-05 neuroblastoma xenograft; assay: In vivo biodistribution in IMR-05 neuroblastoma xenograft model; set-up: species or system nude SHC mice; conditions: 5 μCi intravenously; for tumor versus normal tissue distribution of activity: 2 hrs
Method: To evaluate the in vivo biodistribution of [211A]-Compound 1, an IMR-05 neuroblastoma xenograft model in nude SHC mice was utilized. Xenografts were generated by the subcutaneous injection of 5-10 million IMR-05 neuroblastoma cells. Tumors were then allowed to engraft for 3-4 weeks when they reached 200-300 mm^3. Animals were then intravenously injected with 5 μCi of [211At]-Compound 1 and tissues were harvested at time points of […], 1 and 2 hrs. Samples were then assayed for radioactivity on a gamma counter and data was normalized to percent injected dose by divining the amount of radioactivity in the tissue by the total amount injected. […] Tissue was then flash frozen and 20 micron thick sections were produced using a cryotome. Sections were then exposed to phosphor films and films were read on a digital phosphorimager.

O=C1NCCn2c(-c3ccc([211At])cc3)nc3cccc1c32 [[^211At]-Compound 1]
specificity of cytotoxicity (neuroblastoma cell lines): PARP-1 specific
increase in phosphorylation of ATM and H2AX (DNA double strand breaks) compared to control [1]: 98%
significant deastatination (accumulation of activity in lung, thyroid (neck), or stomach) [2]: not observed
tumor versus normal tissue distribution of activity [2]: concentration of activity in the tumor
tumor versus normal tissue distribution of activity ([2]; listed as 211At-Compound 1): higher tumor to tissue ratios in the majority of normal organs

Source: patent publication US11161865B2, “Radiolabeled and fluorescent PARP inhibitors for imaging and radiotherapy” (THE TRUSTEES OF THE UNIVERSITY OF PENNSYLVANIA, priority 2017, dated 2021)
